These are literature values, as cited in patent US20070160663A1, “Single unit pharmaceutical composition comprising a mixture of fenofibrate and a modified release form of a homocysteine reducing agent” (GALEPHAR PHARMACEUTICAL RESEARCH, INC., priority 2003, published 2007).

SMILES strings stand for the structures.

In the case of `Nc1nc2ncc(CNc3ccc(C(=O)N[C@@H](CCC(=O)O)C(=O)O)cc3)nc2c(=O)[nH]1` [folic acid], the elimination half-life (in vivo) was 3 h.

With `CC(C)(Oc1ccc(C(=O)c2ccc(Cl)cc2)cc1)C(=O)O` [Fenofibric acid], the “Tmax (time to peak plasma level)” value (after oral administration of a conventional marketed form such as Lipanthyl tablet or Fenogal capsule) was 3 to 6 h.

As for `CC(C)OC(=O)C(C)(C)Oc1ccc(C(=O)c2ccc(Cl)cc2)cc1` [Fenofibrate, p-(4-chlorobenzoyl)-phenoxy isobutyrate isopropyl ester], the Tmax (after oral administration) was 3 to 6 h.
